Assay results taken from US20110269790A1, “NOVEL THIENOPYRIDINES AS PHARMACOLOGICALLY ACTIVE AGENTS” (priority 2009, published 2011).
“And” between values parts separate entries of the source, which are not always exact repeats. Equal values may be shown once.

Key:
TNF-α = assay: In vitro TNF-α estimation in LPS treated RAW 264.7 macrophages (ELISA); assay type: cell-based, mouse
Description: (§1) Cell Culture and Treatment: The RAW 264.7 (mouse macrophages, national center for cellular sciences) cells were grown in plastic T-25 culture flask in Dulbeccos modified eagles medium (DMEM) without phenol red supplemented with 10% heat activated serum (heating at 57° C. for 30 minutes, 100 μg per ml penicillin, 200 μg per ml streptomycin, 2 mmol L-glutamine, 1% antibiotic/Anti mycotic solution (GIBCO/SRL) under 5% co2 with 85% relative humidity at 37° C. After 2-3 days cells were removed from the culture flask by tripsinizing the cells with Trypsin EDTA solution. Cell count and viability was performed using a standard Trypan blue dye exclusion method. The cell concentration was adjusted to 1×10^5 cells per ml in each well with the same media in the 12 well plates. After 24 hrs incubation the media was removed from each well replaced with a fresh one containing different concentrations (50 μg, 25 μg, 12.5 μg) of the synthetic compounds BN-4, BN-14 and BN-16 along with 10 μg/ml LPS, where as normal control (PBS) and positive controls (Dexa, Roli) LPS (10 μg/ml), were added. 200 μl of media from each well was collected at 6 hrs for the estimation of TNF-α and after 24 hrs for Nitric Oxide respectively. The adherent cells, which remained after removing the media was subjected to […] for determining the cytotoxicity of compounds at selected concentrations
Measurement of TNF-α: TNF-α was assayed by ELISA kit supplied by R&D systems. A volume of 100 μl of 0.8 μg per ml, goat anti mouse TNF-a in PBS was coated and incubated overnight at room temperature. Plates were washed 3 times with PBS/0.05% Tween 20 and blocked by the addition of 1% BSA in PBS at room temperature for 2 hrs. Plates were washed 3 times again with same buffer and 100 μl of samples and standards (Recombinant mouse TNF-α with 1% BSA in PBS) of different concentrations were added in triplicates and incubated for 2 hrs at RT. After washing 100 μl of goat anti mouse TNF-α conjugated with HRP were added and incubated for 2 hrs at RT. Then 100 μl of TMB substrate ([…] with H2O2) was added to all wells. After 20 min stop solution was added to all the wells, and measured the optical density at 450 nm. TNF-α concentration was calculated from standard curve by regression analysis.

Nitric oxide [1] = assay: Nitric oxide (nitrite, Griess) estimation in LPS treated RAW 264.7 macrophages; assay type: cell-based, mouse; conditions: 24 hrs, different concentrations, vs LPS treated control
Description: as §1
Measurement of Nitrite: For determination of nitric oxide concentration, the stable conversion product of nitric oxide, nitrite (NO^2−) was measured using the Griess reagent (Chi et, al., 2001). After 24 hrs incubation a volume of 100 μl of supernatant from each well of cell culture plates was transferred to 96 well micro plate and equal volume of Griess reagent (1% sulphanilamide, 0.1% N-(1-naphthyl ethylene diamine hydrochloride), 2.5% H3PO4) was then added to the supernatant at room temperature. The absorbance at 570 nm was determined in multi detection Microplate reader after 10 min. Nitric oxide concentration was calculated using standard curve.

nitric oxide [2] = assay: Nitric oxide inhibition assay, sodium nitroprusside method; conditions: Griess reagent, vs control
rats = assay: Acute oral toxicity, sighting study in rats; assay type: in vivo, rat; conditions: for Toxic symptoms and mortality, sighting study: single oral doses 5, 50, 500, and 2000 mg/kg, observed 14 days
Description: In the series of thioenopyridine derivatives compounds BN-4, BN-14 and BN-16 show good antiinflammatory potential in all models tested. […] Acute Oral Toxicity Study was conducted following OECD guidelines by fixed dose method adopted by OECD (420). The study involved preliminary sighting using small number of animals in order to derive the dose effect relation for toxicity and mortality and to provide information on dose selection for the main study.
In the preliminary sighting study, the effect of various dosed administered to single animals of each sex was investigated in a sequential manner. The sighting study generally yields information on the dose-toxicity relationship including an estimate of the minimum lethal dose. In the main study, the test article is administered to groups of 5 males and 5 female animals at one of the fixed doses (5, 50, 500 and 2000 mg/Kg). The dose is derived from the sighting study. It is immediately below that which is expected to result in mortality. If evident toxicity is not seen at the chosen dose level, the substance should be retested at the next higher dose level. If at the initial dose level, animals die, or a severe toxicity reaction requires removal of animals from the study for animal welfare reasons, the substance is retested at the next lower dose level. Consideration of data from the both sighting study and the main study enabled a judgment to be made on determination of maximum tolerated dose.
Sighting Study: Animals were fasted overnight. Following period of fasting, the animals were weighed and were administered the test articles by oral route. After the test substance was administered food was withheld for further 3 to 4 hrs. In the sighting study, the effect of various doses was investigated in single animals of each sex. Dosing was sequential allowing at least 24 hrs before dosing the next animal. All animals were carefully observed for signs and symptoms of toxicity continuously up to 24 hrs and later up to 7 days. […] In this sighting study, the dose that produced evident toxicity but not death was identified. […]

Wistar rats = assay: Arachidonic acid induced paw edema; assay type: in vivo, rat; conditions: one hour after Arachidonic acid
Description: Paw edema was produced in rats by Arachidonic acid following the method of Dimartino et al. (1987) and Laura segura et al., 1998. wistar rats weighing between 130-150 g were divided in to groups of six animals (n=6).A volume of 0.1 ml of 0.5% Arachidonic acid in 0.2M Carbonate buffer was injected in to the plantar side of the right hind paw of the rat. Paw volumes were measured using plethysmometer before and after one hour Arachidonic acid injection. Results obtained were compared with those obtained from the control group, which received vehicle only.

[3] = 50 μg/ml, 25 μg/ml, 12.5 μg/ml with LPS 10 μg/ml, 6 hrs

Structure (SMILES) | Inhibition of TNF-a production (TNF-α; [3]) | Release of NO from murine macrophage cell line (Nitric oxide [1]) | NO release in Sodium Nitroprusside method (nitric oxide [2]) | Toxicity, sighting study (rats; doses 2000 and 1250 mg/kg in rats) | % Inhibition (Wistar rats; 50 mg/kg) [%] | Percentage Swelling (50 mg/kg) (Wistar rats; 50 mg/kg) [%] | % Inhibition (Wistar rats; 100 mg/kg) [%] | Percentage Swelling (100 mg/kg) (Wistar rats; 100 mg/kg) [%] | % Inhibition (Wistar rats; 200 mg/kg) | Percentage Swelling (200 mg/kg) (Wistar rats; 200 mg/kg) [%] | Inhibition of TNF-a production (TNF-α; 12.5 μg/ml with LPS) | Toxic symptoms and mortality, sighting study (rats)
Nc1c2c(nc3sc4c(c13)CCC4)CCCC2 [BN-14, 2,3,6,7,8,9-Hexahydro-1H-cyclopenta[4,5]thieno[2,3-b]quinolin-10-amine] | good inhibition | significantly (p<0.01) suppressed | significantly inhibited | toxic | 24.21 ± 3.89 | 50.56 ± 3.12 | 33.6 ± 3.11 | 45.64 ± 2.0 | 41.37% and 41.37 ± 2.40% | 38.70 ± 1.60 |  | 
Cc1sc2nc3c(c(N)c2c1C)CCCCC3 [BN-4, 2,3-dimethyl-6,7,8,9-tetrahydro-5H-cyclohepta[b]thieno[3,2-e]pyridin-4-amine] | good inhibition | significantly (p<0.01) suppressed | significantly inhibited |  | 19.13 ± 2.01 | 55.32 ± 2.06 | 29.94 ± 3.37 | 48.54 ± 2.2 | 44.92% and 44.92 ± 3.10% | 37.50 ± 1.60 | not shown inhibition | do not show any toxic symptoms and mortality
Nc1c2c(nc3sc4c(c13)CCC4)CCCCC2 [BN-16, 1,2,3,6,7,8,9,10-Octahydrocyclohepta[b]cyclopenta[4,5]thieno[3,2-e]pyridine-11-amine] | good inhibition | significantly (p<0.01) suppressed | significantly inhibited |  | 21.72 ± 2.80 | 52.32 ± 2.37 | 34.10 ± 2.82 | 44.95 ± 2.0 | 45.63% and 45.63 ± 2.87% | 36.30 ± 1.80 |  | do not show any toxic symptoms and mortality
